Experiments:
[1] = Comparative oral bioavailability in the rat (Example 19); assay type: in vivo, male Wistar rats; details: male, Wistar, plasma, 5 mg/kg, oral gavage; for bioavailability: relative to iv bolus 2 mg/kg
Method: A single dose of the compounds of Examples 1, 2, 3, 4, and 5 was administered to each of three fasted male Wistar rats (220-250 g; 6-8 weeks old) orally. Compounds of Examples 1-4 were administered by oral gavage in the formulation described in Table 1. The solid dispersion of Example 5 (1.25 mg drug substance in 5 mg PVP-25) was administered in size 9 capsules. One capsule was administered per rat. Approximately 0.4 mL of whole blood was collected via an indwelling jugular catheter at: 0.25, 0.5, 1, 2, 4, 7, 24, and 48 h post-dose. The blood samples were centrifuged (approx. 5 min.) in order to obtain plasma which was then transferred to the appropriately labeled vials and stored frozen (−20° C.) until analysis for parent drug.
Plasma samples were analyzed via LC/MS/MS for parent drug concentrations and pharmacokinetic parameters were calculated using Watson LIMS.
The dose of 5 mg/kg of the pharmaceutical composition of Example 5 means 5 mg of drug substance (compound of Example 1) per kg of body weight. The relative bioavailabilities in the rat are calculated from the data of an intravenous bolus dose of 2 mg/kg in the same strain of rats, using a solution of the active in a Cremophor RH40:ethanol:water (12.5:12.5:75) vehicle. The plasma exposure in the exposure arm of the suspension in 0.5% tylose solution (9.9% F) reflects a crystalline, micronized drug substance with the following characteristics: 208° C. (onset), 211° C. (peak), ΔH=91.4 J/g.

[2] = target: VEGFR-2 (Homo sapiens, UniProt P35968); assay: Inhibition of VEGFR-2 kinase; assay type: biochemical; details: statement in words, no data
[3] = test system: raf; assay: Inhibition of raf kinase; assay type: biochemical; details: statement in words, no data
[4] = Solubility of the active in the dissolution medium; assay type: physicochemical; details: acetate buffer pH 4.5 USP + 0.1% sodium lauryl sulfate, 37°C
Method: Drug dissolution of the new solid dispersion formulations of Example 6 and 7 was studied using the paddle apparatus “Apparatus 2” of the USP 28-NF 23 (The United States Pharmacopoeia USP 28 2005) at a temperature of 37±0.5° C. and a paddle speed of 75 rpm. 900 mL of acetate buffer pH 4.5 USP with the addition of 0.1% (m/V) sodium lauryl sulfate as surfactant was used as dissolution medium. An amount of solid dispersion equivalent to 50 mg of the compound of Formula I as base was inserted in each vessel. During the dissolution test samples were drawn through a filter and the dissolved amount of drug substances was determined by UV spectrometry. The determined amount of active was calculated as % (m/m) of total dose (50mg).
Due to the low solubility of the active only about […] of the 50 mg dose are dissolved. The solid dispersions, however, show fast and almost complete dissolution of the active. […] The solid new pharmaceutical compositions of Example 6 and 7, which contain the active in substantially amorphous form, show clear supersaturation compared to the physical mixture of the active and PVP, and no significant recrystallisation is observed for at least 1 hour. […]

[5] = test system: PDGFR; assay: Inhibition of PDGFR kinase; assay type: biochemical; details: statement in words, no data
[6] = test system: p38; assay: Inhibition of p38 kinase; assay type: biochemical; details: statement in words, no data
[7] = po, 0.5% NaCMC and 0.5% Tween 80 in water
[8] = po, vehicle 0.5% NaCMC and 0.5% Tween 80 in water

Chain of VEGFR-2 (P35968 20-1356, species assumed): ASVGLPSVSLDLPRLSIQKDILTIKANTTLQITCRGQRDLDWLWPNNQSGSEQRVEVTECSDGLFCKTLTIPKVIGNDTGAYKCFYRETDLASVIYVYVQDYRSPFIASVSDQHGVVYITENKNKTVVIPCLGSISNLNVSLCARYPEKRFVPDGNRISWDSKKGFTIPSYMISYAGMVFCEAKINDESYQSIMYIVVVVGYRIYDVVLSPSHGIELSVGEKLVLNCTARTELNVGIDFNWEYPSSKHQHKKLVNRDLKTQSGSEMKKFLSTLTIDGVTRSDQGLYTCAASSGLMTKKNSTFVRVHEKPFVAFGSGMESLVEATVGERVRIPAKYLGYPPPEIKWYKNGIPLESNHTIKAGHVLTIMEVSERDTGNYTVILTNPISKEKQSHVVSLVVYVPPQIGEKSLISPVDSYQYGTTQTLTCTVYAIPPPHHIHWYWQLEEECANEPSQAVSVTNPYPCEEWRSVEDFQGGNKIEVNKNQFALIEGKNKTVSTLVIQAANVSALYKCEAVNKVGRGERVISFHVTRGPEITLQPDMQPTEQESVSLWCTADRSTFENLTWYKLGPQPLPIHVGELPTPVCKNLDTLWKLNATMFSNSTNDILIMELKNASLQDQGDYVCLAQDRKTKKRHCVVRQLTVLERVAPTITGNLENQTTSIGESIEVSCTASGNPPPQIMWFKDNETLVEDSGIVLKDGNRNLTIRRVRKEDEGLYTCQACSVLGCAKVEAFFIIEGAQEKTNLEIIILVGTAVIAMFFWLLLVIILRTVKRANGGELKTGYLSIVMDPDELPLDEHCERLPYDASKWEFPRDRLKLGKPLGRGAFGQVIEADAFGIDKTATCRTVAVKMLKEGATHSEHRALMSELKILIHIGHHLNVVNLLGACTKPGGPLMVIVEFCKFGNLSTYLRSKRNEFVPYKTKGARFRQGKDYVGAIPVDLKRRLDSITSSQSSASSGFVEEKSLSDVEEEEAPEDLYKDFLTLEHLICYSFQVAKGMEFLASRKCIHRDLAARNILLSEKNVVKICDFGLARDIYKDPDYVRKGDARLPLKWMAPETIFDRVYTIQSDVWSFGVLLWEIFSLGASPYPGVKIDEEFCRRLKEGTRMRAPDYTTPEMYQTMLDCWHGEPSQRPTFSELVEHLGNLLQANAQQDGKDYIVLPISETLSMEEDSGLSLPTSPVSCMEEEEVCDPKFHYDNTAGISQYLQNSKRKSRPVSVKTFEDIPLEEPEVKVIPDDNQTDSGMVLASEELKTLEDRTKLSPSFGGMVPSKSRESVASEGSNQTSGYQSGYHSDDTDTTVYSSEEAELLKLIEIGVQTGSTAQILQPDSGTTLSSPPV

SMILES | bioavailability [1, 7] [%] | AUC(0-inf) [1, 8] [ng·h/mL] | inhibition of VEGFR-2 kinase [2] | inhibition of raf kinase [3] | solubility of the active in this medium [4] [mg/900 mL] | bioavailability ([1]; oral, 0.5% tylose in water) [%] | bioavailability ([1]; po, 0.5% tylose in water) [%] | AUC(0-inf) ([1]; po, vehicle 0.5% tylose in water) [ng·h/mL] | inhibition of PDGFR kinase [5] | inhibition of p38 kinase [6]
CNC(=O)c1cc(Oc2ccc(NC(=O)Nc3ccc(Cl)c(C(F)(F)F)c3)c(F)c2)ccn1.Cl [Example 2, 4{4-[3-(4-chloro-3-trifluoromethylphenyl)-ureido]-3-fluorophenoxy}-pyridine-2-carboxylic acid methylamide hydrochloride] | 7 | 12100 | – | – | – | – | – | – | – | –
CNC(=O)c1cc(Oc2ccc(NC(=O)Nc3ccc(Cl)c(C(F)(F)F)c3)c(F)c2)ccn1.CS(=O)(=O)O [Example 3, 4{4-[3-(4-chloro-3-trifluoromethylphenyl)-ureido]-3-fluorophenoxy}-pyridine-2-carboxylic acid methylamide mesylate] | 10 | 16800 | – | – | – | – | – | – | – | –
CNC(=O)c1cc(Oc2ccc(NC(=O)Nc3ccc(Cl)c(C(F)(F)F)c3)c(F)c2)ccn1 [Example 1, 4{4-[3-(4-chloro-3-trifluoromethylphenyl)-ureido]-3-fluorophenoxy}-pyridine-2-carboxylic acid methylamide] | 13 | 21800 | potent inhibitor | potent inhibitor | 2.3 | 9.9 | 10 | 17000 | potent inhibitor | potent inhibitor
CNC(=O)c1cc(Oc2ccc(NC(=O)Nc3ccc(Cl)c(C(F)(F)F)c3)c(F)c2)ccn1.O=S(=O)(O)c1ccccc1 [Example 4, 4{4-[3-(4-chloro-3-trifluoromethylphenyl)-ureido]-3-fluorophenoxy}-pyridine-2-carboxylic acid methylamide phenylsulfonate] | 10 | 15800 | – | – | – | – | – | – | – | –

Reference: patent publication US20060058358A1, “Pharmaceutical compositions for the treatment of hyper-proliferative disorders” (priority 2004, published 2006)
